Reference: US10131653B2, “Heterocyclic compound” (TAKEDA PHARMACEUTICAL COMPANY LIMITED, priority 2015, dated 2018)
Counter-ions that a name gives are not always drawn.

How the values were obtained:
human OX2 receptor = target: T1, human OX2 receptor (Homo sapiens, UniProt O43614); experiment: Measurement of orexin receptor antagonistic activity (calcium fluorescence, FLIPRtetra); assay type: cell-based; details: CHO, 10 μM test compound; CHO cells expressing human OX2 receptor; OX-A 0.3 nM; read-out: Human Orexin2 receptor inhibition (at 10 μM)
T1 construct: expressed in transfected cells; host or cells: CHO cells
T1 sequence (O43614 1-444): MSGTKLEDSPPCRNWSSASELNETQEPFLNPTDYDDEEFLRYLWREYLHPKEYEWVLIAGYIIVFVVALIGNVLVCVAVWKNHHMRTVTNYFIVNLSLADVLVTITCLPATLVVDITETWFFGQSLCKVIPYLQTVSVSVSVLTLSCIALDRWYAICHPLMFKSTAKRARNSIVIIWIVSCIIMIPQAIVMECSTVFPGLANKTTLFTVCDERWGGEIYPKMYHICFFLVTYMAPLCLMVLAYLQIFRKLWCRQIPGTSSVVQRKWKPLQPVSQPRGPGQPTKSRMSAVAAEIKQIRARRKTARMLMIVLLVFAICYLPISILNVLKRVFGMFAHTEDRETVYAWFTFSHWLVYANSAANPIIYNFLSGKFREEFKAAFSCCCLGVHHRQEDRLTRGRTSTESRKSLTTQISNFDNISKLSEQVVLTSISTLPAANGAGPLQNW
In short: (§1)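 Calcium fluorescence measured by FLIPRtetra every second for 2 min after orexin-A challenge, 1 nM final for OX1 and 0.3 nM final for OX2. Receptor-expressing CHO cells received compound in HEPES-buffered HBSS with 0.1% BSA just before agonist.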

human OX1 receptor = target: T2, human OX1 receptor (Homo sapiens, UniProt O43613); experiment: as above; assay type: cell-based; details: CHO, 10 μM test compound; CHO cells expressing human OX1 receptor; OX-A 1 nM; read-out: Human Orexin1 receptor inhibition (at 10 μM)
T2 construct: expressed in transfected cells; host or cells: CHO cells
T2 sequence (O43613 1-425): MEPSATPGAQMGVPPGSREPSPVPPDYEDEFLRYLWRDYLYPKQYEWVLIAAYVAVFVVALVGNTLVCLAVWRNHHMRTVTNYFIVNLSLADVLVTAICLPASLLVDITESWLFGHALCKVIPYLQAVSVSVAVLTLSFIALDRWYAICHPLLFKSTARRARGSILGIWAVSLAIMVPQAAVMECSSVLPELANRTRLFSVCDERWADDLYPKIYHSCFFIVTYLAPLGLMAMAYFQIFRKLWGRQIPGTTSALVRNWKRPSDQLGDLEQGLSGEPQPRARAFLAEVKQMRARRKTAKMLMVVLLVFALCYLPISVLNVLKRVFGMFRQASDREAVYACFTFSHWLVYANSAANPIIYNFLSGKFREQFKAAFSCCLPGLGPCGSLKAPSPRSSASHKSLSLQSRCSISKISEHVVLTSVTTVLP
In short: as §1

Structure (SMILES)	inhibition at 10 µM (human OX2 receptor)	inhibition at 10 µM (human OX1 receptor)
Cc1cc(N2CCN(C(=O)c3cc(F)ccc3-c3nccs3)C[C@H](C)O2)nc(C)n1 [Example 87, ((7S)-2-(2,6-dimethylpyrimidin-4-yl)-7-methyl-1,2,5-oxadiazepan-5-yl)(5-fluoro-2-(1,3-thiazol-2-yl)phenyl)methanone hydrochloride]	102%	81%
Cc1cc(N2CCN(C(=O)c3cc(Cl)ccc3-c3nccs3)C[C@H](C)O2)nc(C)n1 [Example 88, (5-chloro-2-(1,3-thiazol-2-yl)phenyl)((7S)-2-(2,6-dimethylpyrimidin-4-yl)-7-methyl-1,2,5-oxadiazepan-5-yl)methanone hydrochloride]	99%	101%
Cc1cccc(N2CCN(C(=O)c3ccccc3-c3nccs3)C[C@H](C)O2)n1 [Example 89, ((7S)-7-methyl-2-(6-methylpyridin-2-yl)-1,2,5-oxadiazepan-5-yl) (2-(1,3-thiazol-2-yl)phenyl)methanone]	97%	101%
C[C@H]1CN(C(=O)c2ccccc2-c2nccs2)CCN(c2ccc(Cl)cn2)O1 [Example 90, ((7S)-2-(5-chloropyridin-2-yl)-7-methyl-1,2,5-oxadiazepan-5-yl)(2-(1,3-thiazol-2-yl)phenyl)methanone]	96%	101%
Cc1cc(C)nc(N2CCN(C(=O)c3ccccc3-c3nccs3)C[C@H](C)O2)c1 [Example 91, ((7S)-2-(4,6-dimethylpyridin-2-yl)-7-methyl-1,2,5-oxadiazepan-5-yl)(2-(1,3-thiazol-2-yl)phenyl)methanone]	100%	100%
Cc1nc(N2CCN(C(=O)c3ccccc3-n3nccn3)C[C@H](C)O2)cc(C(F)(F)F)n1 [Example 92, ((7S)-7-methyl-2-(2-methyl-6-(trifluoromethyl)pyrimidin-4-yl)-1,2,5-oxadiazepan-5-yl)(2-(2H-1,2,3-triazol-2-yl)phenyl)methanone]	101%	73%
Cc1nc(C(F)F)cc(N2CCN(C(=O)c3ccccc3-n3nccn3)C[C@H](C)O2)n1 [Example 93, ((7S)-2-(6-(difluoromethyl)-2-methylpyrimidin-4-yl)-7-methyl-1,2,5-oxadiazepan-5-yl) (2-(2H-1,2,3-triazol-2-yl)phenyl)methanone]	100%	72%
Cc1cc(N2CCN(C(=O)c3ccccc3-n3nccn3)C[C@H](C)O2)nc(C(F)(F)F)n1 [Example 94, ((7S)-7-methyl-2-(6-methyl-2-(trifluoromethyl)pyrimidin-4-yl)-1,2,5-oxadiazepan-5-yl) (2-(2H-1,2,3-triazol-2-yl)phenyl)methanone]	104%	106%

Second part, the compound after the results:

inhibition at 10 µM (human OX2 receptor)	inhibition at 10 µM (human OX1 receptor)	Structure (SMILES)
97%	100%	C[C@H]1CN(C(=O)c2ccccc2-n2nccn2)CCN(c2cc(C(F)F)nc(C3CC3)n2)O1 [Example 95, ((7S)-2-(2-cyclopropyl-6-(difluoromethyl)pyrimidin-4-yl)-7-methyl-1,2,5-oxadiazepan-5-yl) (2-(2H-1,2,3-triazol-2-yl)phenyl)methanone]
98%	98%	C[C@H]1CN(C(=O)c2ccccc2-n2nccn2)CCN(c2cc(C3CC3)nc(C3CC3)n2)O1 [Example 96, ((7S)-2-(2,6-dicyclopropylpyrimidin-4-yl)-7-methyl-1,2,5-oxadiazepan-5-yl) (2-(2H-1,2,3-triazol-2-yl)phenyl)methanone]
100%	95%	C[C@H]1CN(C(=O)c2ccccc2-n2nccn2)CCN(c2cc(C(F)(F)F)nc(C3CC3)n2)O1 [Example 97, ((7S)-2-(2-cyclopropyl-6-(trifluoromethyl)pyrimidin-4-yl)-7-methyl-1,2,5-oxadiazepan-5-yl) (2-(2H-1,2,3-triazol-2-yl)phenyl)methanone]
